From PubChem BioAssay (NCI) come the findings set out here.

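Five compound concentrations were applied to cells in 96-well plates for 48 hours; endpoints were derived by simple linear interpolation of the resulting dose-response curve. TGI: total growth inhibition.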

The first assay deals with HOP-62 NSCLC. In words: NCI tumour cell line growth inhibition, 48 h.
In turn, `CCOP(=O)(OCC)[C@H](O)c1ccsc1` returned a TGI greater than 100 µM.

Take `COc1ccc(Nc2[nH]c(C(C)=O)c(N)c2C(=S)Nc2ccccc2)cc1`: the TGI is greater than 100 µM.

`Oc1ccccc1C(c1cc2c(cc1O)OCO2)N1CCOCC1` (stereo unspecified): the TGI was greater than 100 µM.

With `CCN(CC)CCOC(c1cc(OC)ccc1OC)c1ccc2n1-c1ccccc1OC2` (stereo unspecified), the TGI stood at 40.2 µM.

Another assay concerns HOP-92 NSCLC. In words: NCI tumour cell line growth inhibition, 48 h.
On to `COc1ccc(Nc2[nH]c(C(C)=O)c(N)c2C(=S)Nc2ccccc2)cc1`, for which the TGI was greater than 100 µM.

Compound `Oc1ccccc1C(c1cc2c(cc1O)OCO2)N1CCOCC1` (stereo unspecified) came in with a TGI of 34.1 µM.

Turning to `CCN(CC)CCOC(c1cc(OC)ccc1OC)c1ccc2n1-c1ccccc1OC2` (stereo unspecified), the TGI worked out at 9.37 µM.

The subject of another assay is HS 578T breast. As to the kind of experiment: NCI tumour cell line growth inhibition, 48 h.
Compound `COc1ccc(Nc2[nH]c(C(C)=O)c(N)c2C(=S)Nc2ccccc2)cc1` gave a TGI greater than 100 µM.

Regarding `Oc1ccccc1C(c1cc2c(cc1O)OCO2)N1CCOCC1` (stereo unspecified), the TGI amounted to 56.4 µM.

The compound `CCN(CC)CCOC(c1cc(OC)ccc1OC)c1ccc2n1-c1ccccc1OC2` (stereo unspecified) had a TGI of 30.9 µM.

The subject of another assay is HT29 colon. As to the kind of experiment: NCI tumour cell line growth inhibition, 48 h.
`CCOP(=O)(OCC)[C@H](O)c1ccsc1` had a TGI greater than 100 µM.

As to `COc1ccc(Nc2[nH]c(C(C)=O)c(N)c2C(=S)Nc2ccccc2)cc1`, the TGI is greater than 100 µM.

With `Oc1ccccc1C(c1cc2c(cc1O)OCO2)N1CCOCC1` (stereo unspecified), the TGI amounted to 35.2 µM.

`CCN(CC)CCOC(c1cc(OC)ccc1OC)c1ccc2n1-c1ccccc1OC2` (stereo unspecified) came in with a TGI of 13.9 µM.

For the next assay, the system named is IGROV1 ovarian. In words: NCI tumour cell line growth inhibition, 48 h.
The compound `CCOP(=O)(OCC)[C@H](O)c1ccsc1` showed a TGI greater than 100 µM.

`COc1ccc(Nc2[nH]c(C(C)=O)c(N)c2C(=S)Nc2ccccc2)cc1`: the TGI was greater than 100 µM.

For the compound `Oc1ccccc1C(c1cc2c(cc1O)OCO2)N1CCOCC1` (stereo unspecified), the TGI was found to be 35.7 µM.

Compound `CCN(CC)CCOC(c1cc(OC)ccc1OC)c1ccc2n1-c1ccccc1OC2` (stereo unspecified) displayed a TGI of 19.7 µM.

Another assay relates to K-562 leukemia. As to the kind of experiment: NCI tumour cell line growth inhibition, 48 h.
For `CCOP(=O)(OCC)[C@H](O)c1ccsc1`, the TGI was greater than 100 µM.

`COc1ccc(Nc2[nH]c(C(C)=O)c(N)c2C(=S)Nc2ccccc2)cc1` yielded a TGI greater than 100 µM.

As for `Oc1ccccc1C(c1cc2c(cc1O)OCO2)N1CCOCC1` (stereo unspecified), the TGI stood at 23.5 µM.

Compound `CCN(CC)CCOC(c1cc(OC)ccc1OC)c1ccc2n1-c1ccccc1OC2` (stereo unspecified) returned a TGI of 23.5 µM.

The next assay relates to KM12 colon. In words: NCI tumour cell line growth inhibition, 48 h.
`CCOP(=O)(OCC)[C@H](O)c1ccsc1`: the TGI was greater than 100 µM.

`COc1ccc(Nc2[nH]c(C(C)=O)c(N)c2C(=S)Nc2ccccc2)cc1`: the TGI is greater than 100 µM.

Turning to `Oc1ccccc1C(c1cc2c(cc1O)OCO2)N1CCOCC1` (stereo unspecified), the TGI was 43 µM.

As for `CCN(CC)CCOC(c1cc(OC)ccc1OC)c1ccc2n1-c1ccccc1OC2` (stereo unspecified), the TGI amounted to 34.2 µM.

Another assay deals with LOX IMVI melanoma. In words: NCI tumour cell line growth inhibition, 48 h.
Compound `CCOP(=O)(OCC)[C@H](O)c1ccsc1` had a TGI greater than 100 µM.

In turn, `COc1ccc(Nc2[nH]c(C(C)=O)c(N)c2C(=S)Nc2ccccc2)cc1` gave a TGI greater than 100 µM.

As to `Oc1ccccc1C(c1cc2c(cc1O)OCO2)N1CCOCC1` (stereo unspecified), the TGI was determined as 43.4 µM.

As for `CCN(CC)CCOC(c1cc(OC)ccc1OC)c1ccc2n1-c1ccccc1OC2` (stereo unspecified), the TGI turned out to be 23.6 µM.

For the next assay, the system named is M14 melanoma. In words: NCI tumour cell line growth inhibition, 48 h.
The compound `CCOP(=O)(OCC)[C@H](O)c1ccsc1` displayed a TGI greater than 100 µM.

For `COc1ccc(Nc2[nH]c(C(C)=O)c(N)c2C(=S)Nc2ccccc2)cc1`, the TGI came to 69.3 µM.

As for `Oc1ccccc1C(c1cc2c(cc1O)OCO2)N1CCOCC1` (stereo unspecified), the TGI was found to be 34.3 µM.

Turning to `CCN(CC)CCOC(c1cc(OC)ccc1OC)c1ccc2n1-c1ccccc1OC2` (stereo unspecified), the TGI was 33.2 µM.

The test system of the next assay is MALME-3M melanoma. As to the kind of experiment: NCI tumour cell line growth inhibition, 48 h.
Compound `CCOP(=O)(OCC)[C@H](O)c1ccsc1` returned a TGI greater than 100 µM.

The compound `COc1ccc(Nc2[nH]c(C(C)=O)c(N)c2C(=S)Nc2ccccc2)cc1` yielded a TGI greater than 100 µM.

In turn, `Oc1ccccc1C(c1cc2c(cc1O)OCO2)N1CCOCC1` (stereo unspecified) gave a TGI of 32.2 µM.

The compound `CCN(CC)CCOC(c1cc(OC)ccc1OC)c1ccc2n1-c1ccccc1OC2` (stereo unspecified) came in with a TGI of 35.8 µM.

In another assay the test system is MCF7 breast. As to the kind of experiment: NCI tumour cell line growth inhibition, 48 h.
In the case of `CCOP(=O)(OCC)[C@H](O)c1ccsc1`, the TGI is greater than 100 µM.

As to `COc1ccc(Nc2[nH]c(C(C)=O)c(N)c2C(=S)Nc2ccccc2)cc1`, the TGI amounted to 68.6 µM.

`Oc1ccccc1C(c1cc2c(cc1O)OCO2)N1CCOCC1` (stereo unspecified) registered a TGI of 38.3 µM.

Consider `CCN(CC)CCOC(c1cc(OC)ccc1OC)c1ccc2n1-c1ccccc1OC2` (stereo unspecified), for which the TGI turned out to be 30.2 µM.

For another assay, the system named is MDA-MB-231 breast. In words: NCI tumour cell line growth inhibition, 48 h.
Take `CCOP(=O)(OCC)[C@H](O)c1ccsc1`: the TGI was greater than 100 µM.

Regarding `COc1ccc(Nc2[nH]c(C(C)=O)c(N)c2C(=S)Nc2ccccc2)cc1`, the TGI was greater than 100 µM.

On to `Oc1ccccc1C(c1cc2c(cc1O)OCO2)N1CCOCC1` (stereo unspecified), for which the TGI was 36.1 µM.

Consider `CCN(CC)CCOC(c1cc(OC)ccc1OC)c1ccc2n1-c1ccccc1OC2` (stereo unspecified), for which the TGI is 5.46 µM.

In another assay the test system is MDA-MB-435. As to the kind of experiment: NCI tumour cell line growth inhibition, 48 h.
In turn, `CCOP(=O)(OCC)[C@H](O)c1ccsc1` gave a TGI greater than 100 µM.

For `COc1ccc(Nc2[nH]c(C(C)=O)c(N)c2C(=S)Nc2ccccc2)cc1`, the TGI is greater than 100 µM.

The compound `Oc1ccccc1C(c1cc2c(cc1O)OCO2)N1CCOCC1` (stereo unspecified) registered a TGI of 34.9 µM.

In the case of `CCN(CC)CCOC(c1cc(OC)ccc1OC)c1ccc2n1-c1ccccc1OC2` (stereo unspecified), the TGI was 22.2 µM.

The subject of another assay is MDA-N. As to the kind of experiment: NCI tumour cell line growth inhibition, 48 h.
The compound `CCOP(=O)(OCC)[C@H](O)c1ccsc1` showed a TGI greater than 100 µM.

`COc1ccc(Nc2[nH]c(C(C)=O)c(N)c2C(=S)Nc2ccccc2)cc1` returned a TGI greater than 100 µM.

As for `Oc1ccccc1C(c1cc2c(cc1O)OCO2)N1CCOCC1` (stereo unspecified), the TGI stood at 37.6 µM.

Take `CCN(CC)CCOC(c1cc(OC)ccc1OC)c1ccc2n1-c1ccccc1OC2` (stereo unspecified): the TGI came to 26.5 µM.

Another assay deals with MOLT-4 leukemia. As to the kind of experiment: NCI tumour cell line growth inhibition, 48 h.
In the case of `CCOP(=O)(OCC)[C@H](O)c1ccsc1`, the TGI was greater than 100 µM.

In the case of `COc1ccc(Nc2[nH]c(C(C)=O)c(N)c2C(=S)Nc2ccccc2)cc1`, the TGI was greater than 100 µM.
